Results as given in ChEMBL document CHEMBL2390853, “The products of the reaction between 6-amine-1,3-dimethyl uracil and bis-chalcones induce cytotoxicity with massive vacuolation in HeLa cervical cancer cell line” (Eur J Med Chem, 2013).
Active and inactive are the calls of the source. The calls are words filed in the database; no cut-off is given here.

Columns and labels:
[1] = Cytotoxicity against human HEK293Q cells assessed as growth inhibition after 48 hrs by MTT assay; assay type: cell-based
[2] = Cytotoxicity against human C33 cells assessed as growth inhibition after 48 hrs by MTT assay; assay type: functional, cell-based; settings: C33, 48 h
[3] = test system: SW480; test: Cytotoxicity against human SW480 cells assessed as growth inhibition after 48 hrs by MTT assay; assay type: functional, cell-based; settings: SW480, 48 h
[4] = test system: SW-620; test: Cytotoxicity against human SW620 cells assessed as growth inhibition after 48 hrs by MTT assay; assay type: functional, cell-based; settings: SW-620, 48 h
[5] = test system: K562; test: Cytotoxicity against human K562 cells assessed as growth inhibition after 48 hrs by MTT assay; assay type: functional, cell-based; settings: K562, 48 h
[6] = test system: MCF7; test: Cytotoxicity against human MCF7 cells assessed as growth inhibition after 48 hrs by MTT assay; assay type: functional, cell-based; settings: MCF7, 48 h
[7] = Cytotoxicity against human CALO cells assessed as growth inhibition after 48 hrs by MTT assay; assay type: functional, cell-based
[8] = test system: HeLa; test: Cytotoxicity against human HeLa cells assessed as growth inhibition after 48 hrs by MTT assay; assay type: functional, cell-based
[9] = test system: HeLa; test: Cytotoxicity against human HeLa cells assessed as cell viability at 50 uM after 3 hrs; assay type: cell-based
[10] = test system: HeLa; test: Cell cycle arrest in human HeLa cells assessed as accumulation at polyploidy region at 0.25 uM after 48 to 72 hrs by propidium iodide staining-based FACS flow cytometric analysis; assay type: functional
[11] = test system: HeLa; test: Induction of apoptosis in human HeLa cells; assay type: functional, cell-based
[12] = test system: HeLa; test: Induction of apoptosis in human HeLa cells assessed as change in Bax expression at 0.25 uM after 24 hrs by Western blot analysis; assay type: functional, cell-based
[13] = test system: HeLa; test: Cell cycle arrest in human HeLa cells assessed as accumulation at sub G1 phase at 0.25 uM after 48 to 72 hrs by propidium iodide staining-based FACS flow cytometric analysis; assay type: functional
[14] = test system: HeLa; test: Induction of apoptosis in human HeLa cells assessed as change in procaspase-3 expression at 0.25 uM after 24 hrs by Western blot analysis; assay type: functional, cell-based
[15] = test system: HeLa; test: Induction of apoptosis in human HeLa cells assessed as change in p53 expression at 0.25 uM after 24 hrs by Western blot analysis; assay type: functional, cell-based
[16] = test system: HeLa; test: Cell cycle arrest in human HeLa cells assessed as accumulation at G2/M phase at 0.25 uM after 12 hrs by propidium iodide staining-based FACS flow cytometric analysis; assay type: functional
[17] = test system: HeLa; test: Induction of apoptosis in human HeLa cells assessed as DNA fragmentation at 0.25 uM after 48 hrs by TUNEL assay; assay type: functional, cell-based
[18] = test system: HeLa; test: Induction of autophagy in human HeLa cells assessed as increase in conversion of LC3B-1 to LC3B-2 at 10 uM after 3 hrs by Western blot analysis; assay type: functional, cell-based
[19] = test system: HeLa; test: Induction of cytoplasmic vacuolation in human HeLa cells at 13 uM after 24 hrs by neutral red staining-based light microscopic analysis; assay type: functional, cell-based
[20] = test system: HeLa; test: Induction of apoptosis in human HeLa cells assessed as change in Bax expression at 2.5 to 15 uM after 24 hrs by Western blot analysis; assay type: functional, cell-based
[21] = test system: HeLa; test: Induction of apoptosis in human HeLa cells assessed as DNA fragmentation at 13 uM after 48 hrs by TUNEL assay; assay type: functional, cell-based
[22] = test system: HeLa; test: Cell cycle arrest in human HeLa cells assessed as accumulation at sub G1 phase at 13 uM after 72 hrs by propidium iodide staining-based FACS flow cytometric analysis; assay type: functional
[23] = test system: HeLa; test: Induction of necrosis in human HeLa cells at 13 uM after 24 to 48 hrs by LDH release assay; assay type: functional, cell-based
[24] = test system: HeLa; test: Induction of cytoplasmic vacuolation in human HeLa cells assessed as change in cell morphology at 13 uM after 24 hrs by hematoxylin staining-based light microscopic analysis in presence of cycloheximide; assay type: functional
[25] = test system: HeLa; test: Cell cycle arrest in human HeLa cells assessed as decrease in reduction in cells at S phase at 13 uM after 72 hrs by propidium iodide staining-based FACS flow cytometric analysis; assay type: functional
[26] = test system: HeLa; test: Induction of necrosis in human HeLa cells assessed as inhibition of cell viability at 13 uM after 24 to 48 hrs by tryphan blue exclusion assay; assay type: functional, cell-based
[27] = test system: HeLa; test: Induction of cytoplasmic vacuolation in human HeLa cells at 13 uM after 24 hrs by hematoxylin staining-based light microscopic analysis; assay type: functional, cell-based
[28] = test system: HeLa; test: Induction of autophagy in human HeLa cells assessed as large vacuole formation at 13 uM after 24 hrs by inverted microscopic analysis in presence of spautin-1; assay type: functional, cell-based
[29] = test system: HeLa; test: Induction of apoptosis in human HeLa cells assessed as change in p53 expression at 2.5 to 15 uM after 24 hrs by Western blot analysis; assay type: functional, cell-based
[30] = test system: HeLa; test: Cell cycle arrest in human HeLa cells assessed as increase in accumulation at G1 phase at 13 uM after 48 to 72 hrs by propidium iodide staining-based FACS flow cytometric analysis; assay type: functional
[31] = test system: HeLa; test: Induction of apoptosis in human HeLa cells assessed as change in procaspase-3 expression at 2.5 to 15 uM after 24 hrs by Western blot analysis; assay type: functional, cell-based
[32] = test system: HeLa; test: Induction of apoptosis in human HeLa cells assessed as change in Bcl-2 expression at 2.5 to 15 uM after 24 hrs by Western blot analysis; assay type: functional, cell-based
[33] = test system: HeLa; test: Induction of autophagy in human HeLa cells assessed as increase in conversion of LC3B-1 to LC3B-2 at 13 uM after 24 hrs by Western blot analysis; assay type: functional, cell-based
[34] = test system: HeLa; test: Cell cycle arrest in human HeLa cells assessed as effect on G2/M phase at 13 uM after 12 to 72 hrs by propidium iodide staining-based FACS flow cytometric analysis; assay type: functional
[35] = test system: HeLa; test: Cytotoxicity against human HeLa cells assessed as cell viability at 13 uM after 24 hrs by MTT assay in presence of spautin-1; assay type: functional, cell-based
[36] = test system: HeLa; test: Cytotoxicity against human HeLa cells assessed as cell viability at 13 uM after 48 hrs by MTT assay in presence of gallic acid; assay type: functional, cell-based
[37] = test system: HeLa; test: Induction of autophagy in human HeLa cells assessed as increase in conversion of LC3B-1 to LC3B-2 at 13 uM after 24 hrs by Western blot analysis in presence of spautin-1; assay type: functional, cell-based
[38] = test system: HeLa; test: Induction of necrosis in human HeLa cells assessed as inhibition of cell viability at 13 uM after 24 to 48 hrs by MTT assay; assay type: functional, cell-based
[39] = test system: HeLa; test: Induction of cytoplasmic vacuolation in human HeLa cells; assay type: functional, cell-based
[40] = test system: K562; test: Cytotoxicity against human K562 cells assessed as growth inhibition at 0.25 to 100 uM after 48 hrs by MTT assay; assay type: functional, cell-based
[41] = test system: SW-620; test: Cytotoxicity against human SW620 cells assessed as growth inhibition at 0.25 to 100 uM after 48 hrs by MTT assay; assay type: functional, cell-based
[42] = test system: CALO; test: Cytotoxicity against human CALO cells assessed as growth inhibition at 0.25 to 100 uM after 48 hrs by MTT assay; assay type: functional, cell-based
[43] = test system: HeLa; test: Cytotoxicity against human HeLa cells assessed as growth inhibition at 0.25 to 100 uM after 48 hrs by MTT assay; assay type: functional, cell-based
[44] = test system: SW480; test: Cytotoxicity against human SW480 cells assessed as growth inhibition at 0.25 to 100 uM after 48 hrs by MTT assay; assay type: functional, cell-based
[45] = Cytotoxicity against human HEK293Q cells assessed as growth inhibition at 0.25 to 100 uM after 48 hrs by MTT assay; assay type: cell-based
[46] = test system: C33; test: Cytotoxicity against human C33 cells assessed as growth inhibition at 0.25 to 100 uM after 48 hrs by MTT assay; assay type: functional, cell-based
[47] = test system: MCF7; test: Cytotoxicity against human MCF7 cells assessed as growth inhibition at 0.25 to 100 uM after 48 hrs by MTT assay; assay type: functional, cell-based

## Cn1cccc1/C=C1\COCc2c1nc1c(c2-c2cccn2C)c(=O)n(C)c(=O)n1C
[1]
  IC50: 67.7 µM
[2]
  IC50: 21.6 µM
[3]
  IC50: 28.2 µM
[4]
  IC50: 14 µM
[5]
  IC50: 37.6 µM
[6]
  IC50: 8.37 µM
[7]
  IC50: 43.7 µM
[8]
  IC50: 19.6 µM

## C[C@@H]1C[C@@H]([C@H](O)CC2CC(=O)NC(=O)C2)C(=O)[C@@H](C)C1 [CYCLOHEXIMIDE]
[9]
  Activity: Non-toxic

## CC(=O)O[C@H]1C(=O)[C@@]2(C)[C@H]([C@H](OC(=O)c3ccccc3)[C@]3(O)C[C@H](OC(=O)[C@H](O)[C@@H](NC(=O)c4ccccc4)c4ccccc4)C(C)=C1C3(C)C)[C@]1(OC(C)=O)CO[C@@H]1C[C@@H]2O
[10]
  Activity: Active
[11]
  Activity: Active
[12]
  Activity: inactive
[13]
  Activity: Active
[14]
  Activity: inactive
[15]
  Activity: inactive
[16]
  Activity: Active
[17]
  Activity: Active

## Fc1ccc(CNc2ncnc3ccc(F)cc23)cc1
[18]
  Activity: inactive

## Cn1cccc1/C=C1\CCCc2c1nc1c(c2-c2cccn2C)c(=O)n(C)c(=O)n1C
[19]
  Activity: Active
[1]
  IC50: 60.1 µM
[20]
  Activity: inactive
[21]
  Activity: inactive
[22]
  Activity: inactive
[2]
  IC50: 22.2 µM
[23]
  Activity: Active
[24]
  Activity: Active
[3]
  IC50: 4.4 µM
[4]
  IC50: 8.54 µM
[25]
  Activity: Active
[26]
  Activity: Active
[27]
  Activity: Active
[28]
  Activity: inactive
[5]
  IC50: 10.4 µM
[29]
  Activity: inactive
[30]
  Activity: Active
[31]
  Activity: inactive
[6]
  IC50: 9.33 µM
[32]
  Activity: inactive
[33]
  Activity: Active
[34]
  Activity: inactive
[7]
  IC50: 13.2 µM
[35]
  Activity: Active
[36]
  Activity: Active
[37]
  Activity: inactive
[38]
  Activity: Active
[8]
  IC50: 13.1 µM

## Cn1c(=O)c2c(-c3ccsc3)c3c(nc2n(C)c1=O)/C(=C/c1ccsc1)CCC3
[1]
  IC50: > 100 µM
[2]
  IC50: > 100 µM
[3]
  IC50: > 100 µM
[4]
  IC50: > 100 µM
[5]
  IC50: > 100 µM
[6]
  IC50: > 100 µM
[39]
  Activity: inactive
[7]
  IC50: > 100 µM
[8]
  IC50: > 100 µM

## Cn1c(=O)c2c(-c3ccsc3)c3c(nc2n(C)c1=O)/C(=C/c1ccsc1)COC3
[40]
  growth inhibition (GI): inactive
[41]
  growth inhibition (GI): inactive
[42]
  growth inhibition (GI): inactive
[43]
  growth inhibition (GI): inactive
[44]
  growth inhibition (GI): inactive
[45]
  Activity: Non-toxic
[39]
  Activity: inactive
[46]
  growth inhibition (GI): inactive
[47]
  growth inhibition (GI): inactive
